Source: patent publication US5686424A, “2-oxoethyl derivatives as immunosuppressants” (Miles Inc., priority 1995, dated 1997)
Like-named read-outs stand apart in the source and are kept apart here.

Columns and labels:
[1] = biological target: FKBP (Homo sapiens, UniProt P62942); assay: PPIase Inhibition Assay; assay type: biochemical
Method: 1) Inhibition of PPIase Activity
This assay follows in principle the procedure described in Kofron et al., 1991, Biochemistry 30:6127.
The three main reagents used are PPIase, a substrate for PPIase, and a selected inhibitor compound of the present invention. The basic principle behind this assay is the conversion of the cis isomer of the substrate to the trans form, which conversion is catalyzed by PPIase. Essentially, inhibition of this PPIase activity is measured for the selected compounds. A peptide chymotrypsin substrate containing a proline in the P2 position is only cleaved by chymotrypsin when the Phe-Pro bond is in the trans isomeric configuration. In the presence of excess chymotrypsin, all of the trans peptide isomers are cleaved within approximately five seconds, leaving only cis forms.
The cis peptide will spontaneously convert to the trans isomer at a slow rate. The cis to trans conversion is catalyzed by isomerases at a much faster rate than this spontaneous conversion. Proteins with PPIase activity are examples of such isomerases. After isomerization, the peptide is cleaved by chymotrypsin releasing p-nitroaniline which can be monitored at 390 nm. The rate of release is then calculated using a first order rate plus offset equation utilizing the ENZFITTER program (Leatherbarrow, BIOSOFT, Cambridge, United Kingdom).
In a plastic cuvette are added 950 ul of ice cold assay buffer (25 mM HEPES, pH 7.8, 100 mM NaCl), 10 uL of FKBP (2.5 uM in 10 mM Tris-Cl pH 7.5, 100 mM NaCl, 1 mM dithiothreitol), 25 ul of chymotrypsin (50 mg/ml in 1 mM HCl) and 10 ul of the test compound at various concentrations in dimethyl sulphoxide. The reaction is initiated by addition of 5 ul of substrate (Succinyl-Ala-Phe-Pro-Phe-para-nitroanilide, 5 mg/ml in 235 mM LiCl in trifluoroethanol).
The absorbance at 390 nm versus time is monitored for 90 sec using a Beckman DU70 spectrophotometer. The absorbance versus time data files are transferred to an IBM XT computer and the rate constants determined using the commercial enzfitter program. For each set of data, the uncatalyzed rate of conversion is measured and the uninhibited enzymatic rate determined. The data are expressed as % Activity remaining and are calculated as follows:
% Activity Remaining=(kobs -kuncat)/(kuninh
where kobs is the rate in the presence of a selected test compound, kuncat is the rate in the absence of enzyme, and kuninh is the rate in the presence of enzyme
Data was plotted as the velocity in the absence of the inhibitor (V-) divided by the velocity in the presence of inhibitor (V+) versus the inhibitor concentration. The IC50 can be determined following linear regression as the inhibitor concentration where

[2] = system: human T-cells; assay: Suppression of Human T-Cell Proliferation Assay (PHA-stimulated, [3H]-thymidine incorporation); assay type: cell-based; conditions: read-out: IC50
Text: 2) Human T Lymphocyte Inhibition
Inhibition of mitogen-induced T-cell proliferation can be used to profile immunosuppressive activity of test compounds. In the description of the assay which follows, mitogen-induced T-cell activation was used to test the inhibitory potencies of select compounds of the present invention.
In an assay similar to that described by Bradley in Mishell et al. (Eds.), 1980, Selected Methods in Cellular Immunology, pp 156-161, W. H. Freeman & Co., San Fransisco, Calif., T-cells were stimulated by incubation with phytohemagglutinin (PHA) which binds to cell surface molecules, including the T-cell receptor. This stimulation results in proliferation which can be measured by incorporation of [^3 H]-thymidine into cellular DNA.
The immunosuppressive properties of the compounds of the present invention can be determined by adding various concentrations of the compounds to these cultures and measuring the effect on T-cell proliferation.
Suppression of Human T-Cell Proliferation Assay
Fresh LeukoPaks were obtained from the New York Blood Center, New York, N.Y. The cells, including erythrocytes and leukocytes, were diluted with Hank's Balanced Salt Solution (HBSS) (GIBCO, Grand Island, N.Y.) and layered over Lymphoprep (Nycomed Pharma AS, Oslo, Norway) in sterile 50 ml conical centrifuge tubes. Lymphocytes were isolated at the Hank's/Nycomed interface after centrifugation at 2000×g, 4° C. for 15 min. The lymphocytes were washed with Minimal Essential Medium (GIBCO) containing 2% fetal bovine serum (FBS) (Sigma Chemical Co., St. Louis, Mo.), 1% HEPES buffer (GIBCO) and 1% Penicillin-Stretomycin solution (GIBCO).
T-cells were further purified essentially by sheep erythrocyte (SRBC) rosetting as described by Morimoto et al., 1983, J. Immunol. 130:157. The isolated lymphocytes were adjusted to 2×10^7 cells/ml and 5 ml aliquots of the cell suspension were incubated for 10 minutes at room temperature with 5 ml of a 5% SRBC (Cappel, Organon Technika Corp., West Chester, Pa.) suspension. The cells were gently pelleted by centrifugation at 300 rpm for 10 minutes, followed by a 1 hour incubation at room temperature to allow rosette formation. The cells were gently resuspended,layered over Lymphoprep and centrifuged for 30 minutes at 500×g. The pellet, containing rosetted T-cells and SRBC was treated with ice cold buffered ammonium chloride (GIBCO) to lyse the erythrocytes. T-cells were washed twice with HBSS.
Purified T-cells were resuspended at 2×10^6 cells/ml in complete culture medium composed of RPMI-1640 (Whittaker Bioproducts, Walkerville, Md.) with 10% FBS (Sigma), 2 mM L-glutamine (GIBCO), 1% Penicillin-Streptomycin (GIBCO) and 15 mM HEPES (GIBCO). In 96-well plates (Becton Dickinson, Lincoln Park, N.J.), 0.1 ml aliquots of T-cell suspension were mixed with 0.05 ml of 40 μg/ml PHA-M (Sigma). The compounds of this invention were dissolved in dimethylsulfoxide at 10 mM and various dilutions in complete medium were added in duplicate wells (0.05 ml/well). The plates were incubated at 37° C. in a humidified atmosphere of 5% carbon dioxide and 95% air for 72 hours.
Proliferation was assessed by measurement of [^3 H]-thymidine incorporation. During the last 6 hours of incubation, the cells were pulse labelled with 1 μCi/well of [^3 H]-thymidine (New England Nuclear, Boston, Mass.). The cells were harvested onto glass fiber paper using a plate harvester and the radioactivity incorporated into cellular DNA corresponding to individual wells was measured by standard liquid scintillation counting methods.

[3] = concentration of inhibitor required for 50% inhibition of enzyme activity, FKBP, substrate Succinyl-Ala-Phe-Pro-Phe-para-nitroanilide, TABLE I
[4] = concentration inhibiting [3H]-thymidine incorporation of PHA-stimulated T-cells by 50%, 72 hours, TABLE 2

Chain of FKBP (P62942 whole entry): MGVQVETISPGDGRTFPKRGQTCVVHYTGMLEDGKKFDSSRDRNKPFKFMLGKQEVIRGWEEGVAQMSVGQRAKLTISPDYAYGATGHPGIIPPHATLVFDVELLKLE

IC50 [1, 3] [µM] | Compound | IC50 [2, 4] [µM] | IC50 [1] [µM] | IC50 [2] [µM]
< 50 | CC[C@H](C)[C@H](NC(=O)[C@@H]1CCCCN1CC(=O)c1ccccc1)C(=O)NCc1ccccc1 [Example 17, L-Isoleucine, N-[1-(2-Phenyl-2-Oxoethyl)-L-Homoproline] Benzylamide] | > 50 | – | –
< 50 | O=C(CN1CCC[C@H]1C(=O)N[C@H](C(=O)NCc1ccccc1)c1ccccc1)c1ccccc1 [Example 18] | 6 | – | –
< 50 | CC[C@H](C)[C@H](NC(=O)[C@@H]1CCCN1C(C)C(=O)c1ccccc1)C(=O)NCc1ccccc1 (stereo partly drawn) [Example 19, L-Isoleucine, N-[1-(1-Methyl-2-Phenyl-2-Oxoethyl)-L-Prolyl] Benzylamide] | 18 | – | –
< 50 | CC[C@H](C)[C@H](NC(=O)[C@@H]1CCCN1CC(=O)c1cccc(OC)c1)C(=O)NCc1ccccc1 [Example 20, L-Isoleucine, N-[1-(2-(3-Methoxyphenyl)-2-Oxoethyl)-L-Prolyl] Benzylamide] | < 11 | – | –
5 | CC[C@H](C)[C@H](NC(=O)[C@@H]1CCCN1CC(=O)c1ccc(F)cc1)C(=O)NCc1ccccc1 [Example 33, L-Isoleucine, N-[1-(2-(4-Fluorophenyl)-2-Oxoethyl)-L-Prolyl] Benzylamide] | 42 | – | –

More lines, now with the values behind:

Compound | IC50 [1, 3] [µM] | IC50 [2, 4] [µM] | IC50 [1] [µM] | IC50 [2] [µM]
CC[C@H](C)[C@H](NC(=O)[C@@H]1CCCN1CC(=O)c1ccc(O)c(O)c1)C(=O)NCc1ccccc1 [Example 21, L-Isoleucine, N-[1-(2-(3,4-Dihydroxyphenyl)-2-Oxoethyl)-L-Prolyl] Benzylamide] | < 50 | 34 | – | –
CC[C@H](C)[C@@H](C(=O)NCc1ccccc1)N(C)C(=O)[C@@H]1CCCN1CC(=O)OCc1ccccc1 [Example 22, L-Isoleucine, N-Methyl-N-[1-(2-Benzyloxy-2-Oxoethyl)-L-Prolyl] Benzylamide] | > 50 | 42 | – | –
CC[C@H](C)[C@H](NC(=O)[C@@H]1CCCCN1CC(=O)OCc1ccccc1)C(=O)NCc1ccccc1 [Example 23] | < 50 | 62 | – | –
CC[C@H](C)[C@H](NC(=O)[C@@H]1CCCN1CC(=O)C(C)(C)C)C(=O)NCc1ccccc1 [Example 26, L-Isoleucine, N-[1-(2-tert-Butyl-2-Oxoethyl)-L-Proline] Benzylamlde] | < 50 | 58 | – | –
CC[C@H](C)[C@H](NC(=O)[C@@H]1CCCN1CC(=O)c1cc(OC)ccc1OC)C(=O)NCc1ccccc1 [Example 27, L-Isoleucine, N-[1-(2-(2,5-Dimethoxyphenyl)-2-Oxoethyl)-L-Prolyl] Benzylamide] | 12 | 20 | – | –
CC[C@H](C)[C@H](NC(=O)[C@@H]1CCCN1CC(=O)c1cccc(OCc2ccccc2)c1)C(=O)NCc1ccccc1 [Example 31, L-Isoleucine, N-[1-(2-(3-Benzyloxyphenyl)-2-Oxoethyl)-L-Prolyl] Benzylamlde] | < 5 | 32 | – | –
CC[C@H](C)[C@H](NC(=O)[C@@H]1CCCN1CC(=O)c1ccc(C)cc1C)C(=O)NCc1ccccc1 [Example 32, L-Isoleucine, N-[1-(2-(2,4-Dimethylphenyl)-2-Oxoethyl)-L-Prolyl] Benzylamide] | < 5 | 41 | – | –
CC[C@H](C)[C@H](NC(=O)[C@@H]1CCCN1CC(=O)c1ccc(Br)cc1)C(=O)NCc1ccccc1 [Example 34, L-Isoleucine, N-[1-(2-(4-Bromophenyl)-2-Oxoethyl)-L-Prolyl] Benzylamide] | < 5 | 40 | – | –
CC[C@H](C)[C@H](NC(=O)[C@@H]1CCCN1CC(=O)Nc1ccc(Cl)cc1Cl)C(=O)NCc1ccccc1 [Example 35, L-Isoleucine, N-[1-(2,4-Dichlorophenylcarbamoylmethyl)-L-Proline] Benzylamide] | > 5 | 43 | – | –
CC[C@H](C)[C@H](NC(=O)[C@@H]1CCCN1CC(=O)c1ccc(-c2ccccc2)cc1)C(=O)NC(C)(C)C [Example 52, L-Isoleucine, N-[1-(2-(Biphenyl-4-yl)-2-Oxoethyl)-L-Prolyl] tert-Butylamide] | – | – | < 50 | > 50
